From US4304778A, “4-Aminoquinazoline derivatives having fungicidal, anti-insect and acaricidal properties” (Sankyo Company Limited, priority 1978, dated 1981)

Experiments:
[1] = tested on: Phytophthora infestans; type: in vivo; details: tomato late blight; 500 ppm; after 5 days; average per leaf
[2] = tested on: Alternalia solani; experiment: Effect on early blight in tomatoes; type: in vivo; details: tomato early blight; 500 ppm; 3 days in greenhouse
Procedure: (§1) In the following Examples, wettable powders prepared according to the procedures of Example 4 were used, each powder containing 50% by weight of the active compound of this invention.
Groups of tomato plants (variety Shinfukuju) were planted, two per pot, in a series of Wagner pots (diameter 12 cm) and used for the following test when at the 5 to 6 leaf stage. Each pot was treated with 30 ml of an aqueous suspension containing 500 ppm of one of the active compounds shown in Table 3, applied to the plants by spraying over their stems and leaves. After air-drying the plants, a spore suspension of the pathogenic microorganism Alternalia solani was sprayed over each plant, and the plants were kept in a wet room for 24 hours at 20°-22° C. and 100% relative humidity. The pots were then placed in a greenhouse for 3 days. All leaves were then examined for signs of the disease and the number of disease spots per leaf was calculated, using three pots for each compound.

[3] = tested on: Sphaerotheca fuliginea; experiment: Effect on powdery mildew in cucumbers; type: in vivo; details: cucumber powdery mildew; 500 ppm; 10 days
Procedure: as §1
Cucumber seedlings (variety Sagamihanshiro), planted two per 12 cm diameter pot, were used as host plants at the stage when the first leaf was fully grown and open. Each test group of three pots was treated with one of the active compounds shown in Table 5 by spraying an aqueous suspension containing 500 ppm of the active compound onto the plants at the rate of 20 ml per 3 pots. After air-drying the plants, the host plants were inoculated with the microorganism Sphaerotheca fuliginea by brushing already infected cucumber leaves with a small brush and letting the microorganism fall onto the host plants. The inoculated plants were kept in a greenhouse at 24°-26° C. for 10 days. At the end of this time, the percentage diseased area was measured.

[4] = tested on: Colletotrichum lagenarium; experiment: Effect on anthracnose in cucumbers; type: in vivo; details: cucumber anthracnose; 500 ppm; seven days; cotyledon and first leaf
Procedure: as §1
Groups of cucumber plants (variety Sagamihanshiro) were planted, two per pot, in a series of Wagner pots (diameter 12 cm) and were used as host plants when the first leaf was fully grown and open. Each test group of three pots was treated with one of the active compounds shown in Table 4 by spraying an aqueous suspension containing 500 ppm of the active compound onto the plants at the rate of 30 ml per 3 pots. After air-drying the plants, a spore suspension of the pathogenic microorganism Colletotrichum lagenarium was sprayed onto the plants and the plants were kept in a wet room for 24 hours at 20°-22° C. and 100% relative humidity. The pots were then placed in a greenhouse at 26° C. and, seven days after the spore suspension had been sprayed on, the percentage diseased area of the cotyledon and the first leaf was calculated.

[5] = tested on: cockroach larvae; details: 24 hours; 25° C.
[6] = tested on: third instar larvae of the tobacco cutworm; experiment: Repellent action against the third instar larvae of the tobacco cutworm; type: in vivo; design: key: -: no ingestion; ±: very little ingestion; +: some ingestion; ++: considerable ingestion; details: cabbage leaves dipped in 500 ppm, 72 hours
Text: as §1
Cabbage leaves were dipped for 30 seconds in an aqueous suspension containing 500 ppm of one of the active compounds shown in Table 6. After air-drying, each leaf was placed into a plastic receptacle having a diameter of 8 cm and the third instar larvae (10 per receptacle) of the tobacco cutworm were released onto the leaves. After 72 hours, the extent of ingestion of the leaves was measured, using two receptacles for each test compound. The results are shown in Table 6, using the following notation (which is also employed, with the same meaning, in following Table 9): […]

[7] = tested on: final instar larvae of the diamondback moth (Plutella xylostella); experiment: Repellent and emergence-inhibition effect on the final instar larvae of diamondback moths; type: in vivo; design: key to Extent of ingestion: -: no ingestion; ±: very little ingestion; +: some ingestion; ++: considerable ingestion; details: 72 hours; for pest or weed control at 500 ppm: Plutella xylostella, read-out: Emergence-inhibition rate (%); for Extent of ingestion: radish leaves dipped in 500 ppm
Text: as §1
Leaves of the Japanese radish (Raphanus sativus) were dipped for 30 seconds into a liquid containing 500 ppm of one of the compounds shown in Table 9. After air-drying the leaves, each leaf was placed into a plastic icecream cup (diameter 8 cm) and 15 final instar larvae of the diamondback moth (Plutella xylostella) were placed into each cup. Each test was conducted in duplicate and the results were averaged.

[8] = tested on: guppies; experiment: Toxicity to guppies; type: in vivo; details: LC50 after 48 hours classified
Procedure: In this example the toxicity of the compounds of the invention towards guppies was estimated and is compared with that of corresponding compounds as disclosed and claimed in our co-pending U.S. Application No. 910,117 filed May 30, 1978. The LC50 was determined after 48 hours and the toxicity to guppies was classified into the rankings (i), (ii) and (iii) according to the following classification scheme: […]

SMILES | Diseased area (%) [1] [%] | No. of disease spots per leaf [2] [spots per leaf] | Diseased area (%) [3] [%] | Diseased area (%) [4] [%] | Mortality rate (%), 0.5mg test cpd/10 cockroaches/bottle [5] [%] | Mortality rate (%), 1mg test cpd/10 cockroaches/bottle [5] [%] | Extent of ingestion [6] | pest or weed control at 500 ppm [7] [%] | Extent of ingestion [7] | Toxicity ranking [8]
Cc1ccccc1OCCN(c1ncnc2ccccc12)C1CCCCC1 [compound 9, 4-{N-cyclohexyl-N-[2-(2-methylphenoxy)ethyl]amino}quinazoline] | 13 | 15 |  |  |  |  |  |  |  | 
CCCCN(CCOc1ccccc1C)c1ncnc2ccccc12 [compound 10, 4-{N-butyl-N-[2-(2-methylphenoxy)ethyl]amino}quinazoline] |  | 4 | 0 |  |  |  |  |  |  | 
C=CCN(CCOc1ccc(C)cc1C)c1ncnc2ccccc12 [compound 26, 4-{N-allyl-N-[2-(2,4-dimethylphenoxy)ethyl]amino}quinazoline] | 3 |  | 0 | 0 | 90 | 100 | ± to + | 80 | ± to + | 
CC(C)c1ccccc1OCCN(c1ncnc2ccccc12)C1CCCCC1 [compound 31, 4-{N-cyclohexyl-N-[2-(2-isopropylphenoxy)ethyl]amino}quinazoline] |  | 13 |  |  |  |  |  |  |  | 
CCN(CCOc1ccc(C)cc1C)c1ncnc2ccccc12 [compound 32, 4-{N-[2-(2,4-dimethylphenoxy)ethyl]-N-ethylamino}quinazoline] | 5 |  | 0 | 8 | 85 | 100 |  |  |  | 
Cc1ccc(OCCN(c2ncnc3ccccc23)C(C)C)c(C)c1 [compound 34, 4-{N-[2-(2,4-dimethylphenoxy)ethyl]-N-isopropylamino}quinazoline] | 0 | 15 | 10 |  |  |  |  |  |  | 
CCN(CCOc1ccc(Cl)cc1C)c1ncnc2ccccc12 [compound 38, 4-{N-[2-(4-chloro-2-methylphenoxy)ethyl]-N-ethylamino}quinazoline] | 13 |  | 0 |  | 90 | 100 | ± | 100 | - to ± | 
C=CCN(CCOc1ccc(Cl)cc1C)c1ncnc2ccccc12 [compound 43, 4-{N-allyl-N-[2-(4-chloro-2-methylphenoxy)ethyl]amino}quinazoline] | 11 |  | 0 |  | 90 | 100 | + | 70 | ± | 
CCN(CCOc1cc(C(C)C)ccc1C)c1ncnc2ccccc12 [compound 47, 4-{N-ethyl-N-[2-(5-isopropyl-2-methylphenoxy)ethyl]amino}quinazoline] |  |  | 0 |  | 85 | 100 | ± to + | 90 | ± | 
C=C(C)CN(CCOc1ccccc1C(C)C)c1ncnc2ccccc12 [compound 52, 4-{N-[2-(2-isopropylphenoxy)ethyl]-N-(2-methylallyl)amino}quinazoline] | 13 |  | 0 | 8 |  |  |  |  |  | i (all fish alive at 10 ppm)
CCCCCCc1ccc(OCCN(C)c2ncnc3ccccc23)c(C)c1 [compound 57, 4-{N-[2-(4-hexyl-2-methylphenoxy)ethyl]-N-methylamino}quinazoline] |  |  |  |  | 90 | 100 | ± | 100 | - to ± | 
